Article PMC12586182 (Frontiers in Oncology, 2025)

Experiments:
Experiment in all cases: Kinase panel profiling at 1 µmol/L (mobility shift assay, Carna)
Assay type in all cases: biochemical
Conditions in all cases: 1 µmol/L of BTK inhibitor
CK2α2/β = target: T1, CK2α2/β (Homo sapiens, UniProt P19784)
T1 construct: purchased Carna Biosciences

CDK5/p25 = target: T2, CDK5/p25 (Homo sapiens, UniProt Q00535)
T2 construct: purchased Carna Biosciences

EEF2K = target: T3, EEF2K (Homo sapiens, UniProt O00418)
T3 construct: purchased Carna Biosciences
T3 sequence (O00418 1-725): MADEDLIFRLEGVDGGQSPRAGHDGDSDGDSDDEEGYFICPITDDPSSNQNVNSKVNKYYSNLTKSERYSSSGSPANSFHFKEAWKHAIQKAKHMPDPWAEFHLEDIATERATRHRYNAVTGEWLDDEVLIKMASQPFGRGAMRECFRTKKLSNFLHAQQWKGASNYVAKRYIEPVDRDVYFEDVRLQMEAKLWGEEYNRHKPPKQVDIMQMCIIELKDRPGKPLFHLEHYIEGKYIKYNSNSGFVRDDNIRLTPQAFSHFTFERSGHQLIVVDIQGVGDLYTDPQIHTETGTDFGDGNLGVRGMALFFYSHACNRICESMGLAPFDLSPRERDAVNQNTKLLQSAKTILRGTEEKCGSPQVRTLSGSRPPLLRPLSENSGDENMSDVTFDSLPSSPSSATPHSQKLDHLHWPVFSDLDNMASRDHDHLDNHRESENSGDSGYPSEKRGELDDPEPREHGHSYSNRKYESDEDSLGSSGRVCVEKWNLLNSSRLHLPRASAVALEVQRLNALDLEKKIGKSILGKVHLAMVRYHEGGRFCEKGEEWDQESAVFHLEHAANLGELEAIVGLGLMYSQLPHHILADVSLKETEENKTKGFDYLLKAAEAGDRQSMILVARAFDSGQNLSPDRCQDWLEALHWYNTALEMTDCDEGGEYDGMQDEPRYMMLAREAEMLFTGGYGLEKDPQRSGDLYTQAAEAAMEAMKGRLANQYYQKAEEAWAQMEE

CDK7/CycH/MAT1 = target: T4, CDK7/CycH/MAT1 (Homo sapiens, UniProt P50613)
T4 construct: purchased Carna Biosciences
T4 sequence (P50613 whole entry): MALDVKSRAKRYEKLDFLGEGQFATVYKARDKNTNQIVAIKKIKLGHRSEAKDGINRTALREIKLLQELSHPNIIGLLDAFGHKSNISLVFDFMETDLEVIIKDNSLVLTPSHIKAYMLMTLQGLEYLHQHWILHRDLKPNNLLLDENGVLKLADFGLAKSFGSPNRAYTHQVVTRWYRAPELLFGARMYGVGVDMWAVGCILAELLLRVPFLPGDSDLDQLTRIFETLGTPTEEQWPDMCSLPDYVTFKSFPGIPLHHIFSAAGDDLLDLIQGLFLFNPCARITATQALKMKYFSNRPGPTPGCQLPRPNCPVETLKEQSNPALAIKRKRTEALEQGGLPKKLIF
T4 sequence (P51946 whole entry partner): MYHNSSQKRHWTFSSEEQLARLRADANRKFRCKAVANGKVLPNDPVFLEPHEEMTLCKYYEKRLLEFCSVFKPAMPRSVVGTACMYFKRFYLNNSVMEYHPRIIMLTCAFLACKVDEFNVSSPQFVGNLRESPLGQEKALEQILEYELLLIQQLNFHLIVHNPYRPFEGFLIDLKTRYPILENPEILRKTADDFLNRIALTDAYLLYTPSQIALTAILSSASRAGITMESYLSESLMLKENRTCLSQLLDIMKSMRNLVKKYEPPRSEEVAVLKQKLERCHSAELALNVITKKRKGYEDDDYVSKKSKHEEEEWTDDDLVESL
T4 sequence (P51948 whole entry partner): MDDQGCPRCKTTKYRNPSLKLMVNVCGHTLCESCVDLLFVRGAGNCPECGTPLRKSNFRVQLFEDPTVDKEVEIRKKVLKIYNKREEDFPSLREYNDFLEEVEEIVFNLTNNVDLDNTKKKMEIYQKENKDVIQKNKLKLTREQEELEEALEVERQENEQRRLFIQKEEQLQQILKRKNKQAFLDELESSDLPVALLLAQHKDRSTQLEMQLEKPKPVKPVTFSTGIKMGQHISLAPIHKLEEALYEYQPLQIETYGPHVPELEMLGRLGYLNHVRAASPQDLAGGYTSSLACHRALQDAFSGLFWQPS

CaMK4 = target: T5, CaMK4 (Homo sapiens, UniProt Q16566)
T5 construct: purchased Carna Biosciences
T5 sequence (Q16566 1-473): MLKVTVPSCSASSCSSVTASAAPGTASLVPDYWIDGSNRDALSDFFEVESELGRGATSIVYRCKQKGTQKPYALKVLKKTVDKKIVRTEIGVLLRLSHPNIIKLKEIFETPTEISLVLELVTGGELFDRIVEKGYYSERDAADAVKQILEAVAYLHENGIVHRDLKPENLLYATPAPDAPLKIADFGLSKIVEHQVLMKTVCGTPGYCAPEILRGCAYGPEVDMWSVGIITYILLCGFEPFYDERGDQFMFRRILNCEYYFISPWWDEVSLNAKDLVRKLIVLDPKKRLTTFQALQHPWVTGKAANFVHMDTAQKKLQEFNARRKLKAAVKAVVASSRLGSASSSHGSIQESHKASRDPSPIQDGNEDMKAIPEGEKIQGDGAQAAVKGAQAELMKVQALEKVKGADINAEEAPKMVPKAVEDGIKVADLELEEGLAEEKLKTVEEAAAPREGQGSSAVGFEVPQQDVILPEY

PKACγ = target: T6, PKACγ (Homo sapiens, UniProt P22612)
T6 construct: purchased Carna Biosciences

NDR2 = target: T7, NDR2 (Homo sapiens, UniProt Q9Y2H1)
T7 construct: purchased Carna Biosciences

PKD2 = target: T8, PKD2 (Homo sapiens, UniProt Q9BZL6)
T8 construct: purchased Carna Biosciences
T8 sequence (Q9BZL6 1-878): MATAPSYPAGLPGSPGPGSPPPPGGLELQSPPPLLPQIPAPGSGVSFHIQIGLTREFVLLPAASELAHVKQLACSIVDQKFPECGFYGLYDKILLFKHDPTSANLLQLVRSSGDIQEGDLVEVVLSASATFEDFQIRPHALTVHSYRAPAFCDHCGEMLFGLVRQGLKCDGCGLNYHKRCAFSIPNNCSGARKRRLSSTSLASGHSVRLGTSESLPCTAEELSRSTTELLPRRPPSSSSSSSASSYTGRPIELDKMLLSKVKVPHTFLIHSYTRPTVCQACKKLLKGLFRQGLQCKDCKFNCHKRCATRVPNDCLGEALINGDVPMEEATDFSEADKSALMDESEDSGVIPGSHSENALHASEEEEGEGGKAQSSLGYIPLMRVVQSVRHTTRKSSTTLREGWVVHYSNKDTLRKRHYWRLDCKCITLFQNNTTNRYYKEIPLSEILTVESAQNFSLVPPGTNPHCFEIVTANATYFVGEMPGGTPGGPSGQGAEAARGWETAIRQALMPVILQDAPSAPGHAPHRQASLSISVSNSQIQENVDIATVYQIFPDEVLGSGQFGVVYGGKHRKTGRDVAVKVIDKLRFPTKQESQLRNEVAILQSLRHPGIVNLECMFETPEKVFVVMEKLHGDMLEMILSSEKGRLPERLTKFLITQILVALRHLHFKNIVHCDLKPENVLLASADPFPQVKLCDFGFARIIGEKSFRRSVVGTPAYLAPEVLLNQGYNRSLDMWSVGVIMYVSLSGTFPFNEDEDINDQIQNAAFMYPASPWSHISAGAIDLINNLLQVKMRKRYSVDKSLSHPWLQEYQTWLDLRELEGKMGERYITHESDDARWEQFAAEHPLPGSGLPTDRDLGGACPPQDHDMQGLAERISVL

CK1ε = target: T9, CK1ε (Homo sapiens, UniProt P49674)
T9 construct: purchased Carna Biosciences
T9 sequence (P49674 whole entry): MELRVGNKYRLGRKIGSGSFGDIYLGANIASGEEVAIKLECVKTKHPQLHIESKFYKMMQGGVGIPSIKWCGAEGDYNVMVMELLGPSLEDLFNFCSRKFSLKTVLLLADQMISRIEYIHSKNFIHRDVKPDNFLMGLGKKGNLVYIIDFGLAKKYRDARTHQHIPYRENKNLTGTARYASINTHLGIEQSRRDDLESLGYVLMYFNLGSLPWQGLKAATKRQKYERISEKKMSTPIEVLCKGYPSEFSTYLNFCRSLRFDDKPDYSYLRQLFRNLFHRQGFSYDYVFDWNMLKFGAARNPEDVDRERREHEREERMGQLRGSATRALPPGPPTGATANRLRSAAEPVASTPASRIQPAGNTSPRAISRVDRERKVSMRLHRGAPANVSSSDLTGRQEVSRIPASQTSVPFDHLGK

LTK = target: T10, LTK (Homo sapiens, UniProt P29376)
T10 construct: purchased Carna Biosciences
T10 sequence (P29376 17-864): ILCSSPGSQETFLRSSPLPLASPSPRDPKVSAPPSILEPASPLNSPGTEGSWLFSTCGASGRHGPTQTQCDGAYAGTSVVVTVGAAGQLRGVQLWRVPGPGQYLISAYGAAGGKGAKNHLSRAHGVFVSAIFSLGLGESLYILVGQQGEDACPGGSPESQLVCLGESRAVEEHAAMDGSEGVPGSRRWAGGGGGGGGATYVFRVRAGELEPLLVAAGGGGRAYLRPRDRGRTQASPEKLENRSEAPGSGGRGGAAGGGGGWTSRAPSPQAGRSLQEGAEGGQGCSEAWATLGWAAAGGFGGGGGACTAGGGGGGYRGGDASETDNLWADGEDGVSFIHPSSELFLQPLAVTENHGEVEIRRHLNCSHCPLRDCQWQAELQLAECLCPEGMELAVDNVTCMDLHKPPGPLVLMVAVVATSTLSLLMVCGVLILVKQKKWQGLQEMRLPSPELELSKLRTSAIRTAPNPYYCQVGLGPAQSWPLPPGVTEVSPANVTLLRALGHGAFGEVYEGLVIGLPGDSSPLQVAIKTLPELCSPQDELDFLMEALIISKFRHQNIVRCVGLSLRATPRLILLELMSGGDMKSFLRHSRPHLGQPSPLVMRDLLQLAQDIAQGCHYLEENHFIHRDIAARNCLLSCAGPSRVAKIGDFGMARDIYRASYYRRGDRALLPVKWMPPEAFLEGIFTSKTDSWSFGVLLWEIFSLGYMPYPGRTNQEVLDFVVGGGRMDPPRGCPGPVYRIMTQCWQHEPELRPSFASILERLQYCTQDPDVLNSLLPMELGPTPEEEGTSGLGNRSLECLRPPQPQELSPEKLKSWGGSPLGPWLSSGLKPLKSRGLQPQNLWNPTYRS

MET = target: T11, MET (Homo sapiens, UniProt P08581)
T11 construct: purchased Carna Biosciences
T11 sequence (P08581 25-1390): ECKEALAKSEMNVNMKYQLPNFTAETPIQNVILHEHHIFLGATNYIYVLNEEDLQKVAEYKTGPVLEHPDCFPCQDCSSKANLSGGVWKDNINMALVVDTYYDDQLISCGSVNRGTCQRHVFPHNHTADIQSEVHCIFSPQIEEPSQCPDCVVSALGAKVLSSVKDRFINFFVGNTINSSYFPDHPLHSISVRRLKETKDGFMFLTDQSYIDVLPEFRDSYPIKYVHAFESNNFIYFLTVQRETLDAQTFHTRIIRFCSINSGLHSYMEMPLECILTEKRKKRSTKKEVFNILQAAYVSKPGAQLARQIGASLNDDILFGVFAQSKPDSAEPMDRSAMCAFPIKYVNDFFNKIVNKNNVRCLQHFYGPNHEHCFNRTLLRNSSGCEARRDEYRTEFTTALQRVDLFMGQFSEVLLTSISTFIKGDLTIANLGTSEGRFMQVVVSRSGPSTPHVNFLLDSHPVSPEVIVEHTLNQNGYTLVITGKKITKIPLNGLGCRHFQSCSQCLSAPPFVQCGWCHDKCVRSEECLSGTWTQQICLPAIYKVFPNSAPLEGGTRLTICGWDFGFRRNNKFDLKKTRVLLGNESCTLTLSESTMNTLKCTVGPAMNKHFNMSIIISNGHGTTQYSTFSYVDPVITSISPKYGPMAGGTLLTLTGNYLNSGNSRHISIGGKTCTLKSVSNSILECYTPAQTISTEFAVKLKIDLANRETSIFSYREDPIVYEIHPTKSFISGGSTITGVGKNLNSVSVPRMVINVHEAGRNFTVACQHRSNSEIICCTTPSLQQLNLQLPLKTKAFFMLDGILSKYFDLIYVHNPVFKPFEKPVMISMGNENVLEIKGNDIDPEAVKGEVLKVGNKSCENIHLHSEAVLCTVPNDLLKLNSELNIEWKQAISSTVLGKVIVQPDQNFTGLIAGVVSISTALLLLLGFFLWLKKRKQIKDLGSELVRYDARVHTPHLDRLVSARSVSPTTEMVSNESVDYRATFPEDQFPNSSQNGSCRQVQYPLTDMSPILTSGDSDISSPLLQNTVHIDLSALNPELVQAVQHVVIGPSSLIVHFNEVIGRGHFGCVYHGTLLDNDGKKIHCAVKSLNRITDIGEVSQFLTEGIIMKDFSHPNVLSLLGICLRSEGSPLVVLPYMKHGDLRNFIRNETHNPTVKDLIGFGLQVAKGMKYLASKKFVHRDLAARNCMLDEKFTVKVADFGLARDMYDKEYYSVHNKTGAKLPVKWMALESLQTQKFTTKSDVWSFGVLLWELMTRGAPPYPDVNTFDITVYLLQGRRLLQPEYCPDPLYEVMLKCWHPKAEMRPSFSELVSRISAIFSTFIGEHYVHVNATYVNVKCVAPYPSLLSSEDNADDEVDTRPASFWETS

AMPKα2/β1/γ1 = target: T12, AMPKα2/β1/γ1 (Homo sapiens, UniProt P54646)
T12 construct: purchased Carna Biosciences

T1 sequence (P19784 whole entry): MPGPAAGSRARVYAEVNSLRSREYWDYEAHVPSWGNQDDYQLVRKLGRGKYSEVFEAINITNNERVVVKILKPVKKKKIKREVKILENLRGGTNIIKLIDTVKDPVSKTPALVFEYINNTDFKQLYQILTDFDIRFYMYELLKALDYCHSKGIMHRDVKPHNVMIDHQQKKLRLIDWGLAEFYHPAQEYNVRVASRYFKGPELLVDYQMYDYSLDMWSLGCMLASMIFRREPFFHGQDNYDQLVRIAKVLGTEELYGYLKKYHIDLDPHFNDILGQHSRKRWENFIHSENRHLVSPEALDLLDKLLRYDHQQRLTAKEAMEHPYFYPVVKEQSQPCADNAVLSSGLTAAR
T1 sequence (P67870 whole entry partner): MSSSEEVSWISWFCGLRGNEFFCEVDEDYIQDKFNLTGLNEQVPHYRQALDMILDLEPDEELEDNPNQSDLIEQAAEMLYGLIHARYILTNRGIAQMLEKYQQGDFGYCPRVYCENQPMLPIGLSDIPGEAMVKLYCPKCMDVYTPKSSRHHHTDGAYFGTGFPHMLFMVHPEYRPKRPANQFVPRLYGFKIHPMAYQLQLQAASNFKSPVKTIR
T2 sequence (Q00535 whole entry): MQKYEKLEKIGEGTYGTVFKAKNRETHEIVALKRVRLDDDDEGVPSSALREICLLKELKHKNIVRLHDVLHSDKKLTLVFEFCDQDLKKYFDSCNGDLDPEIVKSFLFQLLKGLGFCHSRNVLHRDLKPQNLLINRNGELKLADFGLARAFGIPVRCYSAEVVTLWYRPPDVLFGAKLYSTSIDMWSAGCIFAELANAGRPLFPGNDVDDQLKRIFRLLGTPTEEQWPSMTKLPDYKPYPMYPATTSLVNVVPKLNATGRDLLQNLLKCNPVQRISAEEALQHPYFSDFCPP
T2 sequence (Q15078 99-307 partner limits assumed): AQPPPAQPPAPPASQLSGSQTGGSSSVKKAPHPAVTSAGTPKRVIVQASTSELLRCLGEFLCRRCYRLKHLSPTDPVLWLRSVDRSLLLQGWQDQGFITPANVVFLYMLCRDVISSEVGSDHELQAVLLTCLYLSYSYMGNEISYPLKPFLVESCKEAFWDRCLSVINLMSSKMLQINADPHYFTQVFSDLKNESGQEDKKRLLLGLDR

| Structure (SMILES) | Percentage inhibition of kinase enzyme activity (CK2α2/β) | Percentage inhibition of kinase enzyme activity (CDK5/p25) | Percentage inhibition of kinase enzyme activity (EEF2K) | Percentage inhibition of kinase enzyme activity (CDK7/CycH/MAT1) | Percentage inhibition of kinase enzyme activity (CaMK4) | Percentage inhibition of kinase enzyme activity (PKACγ) | Percentage inhibition of kinase enzyme activity (NDR2) | Percentage inhibition of kinase enzyme activity (PKD2) | Percentage inhibition of kinase enzyme activity (CK1ε) | Percentage inhibition of kinase enzyme activity (LTK) | Percentage inhibition of kinase enzyme activity (MET) | Percentage inhibition of kinase enzyme activity (AMPKα2/β1/γ1) |
| --- | --- | --- | --- | --- | --- | --- | --- | --- | --- | --- | --- | --- |
| CC#CC(=O)N1CCC[C@H]1c1nc(-c2ccc(C(=O)Nc3ccccn3)cc2)c2c(N)nccn12 [acalabrutinib] | 9.56% | -19.05% | -12.14% | 5.25% | -8.42% | 1.68% | -6.41% | -9.88% | -10.49% | 10.06% | 3.91% | 3.50% |
| C=CC(=O)N1CCC[C@@H](n2nc(-c3ccc(Oc4ccccc4)cc3)c3c(N)ncnc32)C1 [ibrutinib] | -7.37% | -5.18% | 1.15% | 4.94% | 2.93% | 4.90% | 3.47% | -3.20% | 49.55% | 2.76% | 11.55% | 10.21% |
| O=C(c1ccc(Oc2ccccc2)cc1Cl)c1c[nH]c2ncnc(N[C@@H]3CC[C@@H](CO)OC3)c12 [nemtabrutinib] | -3.55% | -18.80% | 0.24% | -12.60% | 5.83% | 11.12% | -0.25% | 7.65% | 95.45% | – | 42.98% | 40.46% |
| COc1ccc(F)cc1C(=O)NCc1ccc(-c2nn([C@@H](C)C(F)(F)F)c(N)c2C(N)=O)cc1 [pirtobrutinib] | 4.12% | 4.92% | -0.12% | -4.77% | -9.89% | 1.36% | -4.16% | -6.50% | 15.87% | -0.40% | 1.44% | 6.23% |
| C=CC(=O)N1CCC([C@@H]2CCNc3c(C(N)=O)c(-c4ccc(Oc5ccccc5)cc4)nn32)CC1 [zanubrutinib] | – | – | – | – | – | – | 0.50% | – | – | 55.84% | 1.41% | – |
